Legend:
[1] = molecular target: T1, human CSNK1D (Homo sapiens, UniProt P48730); assay: Whole Cell nBRET CSNK1D Binding Assay; conditions: living CHO cells stably expressing human CSNK1D tagged with nanoluciferase; NanoBret tracer 130 nM; 2 hours at 37 C
T1 construct: expressed in transfected cells

[2] = molecular target: T2, human recombinant GST cleaved CSNK1D (Homo sapiens, UniProt P48730); assay: Purified Enzyme Assay (ADP-Glo CSNK1D Kinase Assay); assay type: biochemical; conditions: 2 nM CSNK1D; peptide substrate 150 μM; ATP 20 μM; 45 minutes at room temperature
T2 construct: GST (cleaved yes); purchased University of Dundee clone DU 19064
How it was run: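 Percent activity derived from ADP-Glo quantification of ADP produced. Reactions: compound dose-response with human recombinant GST-cleaved CSNK1D, ATP and substrate peptide PLSRTL-pS-VASLPGL, incubated 45 min at room temperature.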

T2 sequence (P48730 whole entry): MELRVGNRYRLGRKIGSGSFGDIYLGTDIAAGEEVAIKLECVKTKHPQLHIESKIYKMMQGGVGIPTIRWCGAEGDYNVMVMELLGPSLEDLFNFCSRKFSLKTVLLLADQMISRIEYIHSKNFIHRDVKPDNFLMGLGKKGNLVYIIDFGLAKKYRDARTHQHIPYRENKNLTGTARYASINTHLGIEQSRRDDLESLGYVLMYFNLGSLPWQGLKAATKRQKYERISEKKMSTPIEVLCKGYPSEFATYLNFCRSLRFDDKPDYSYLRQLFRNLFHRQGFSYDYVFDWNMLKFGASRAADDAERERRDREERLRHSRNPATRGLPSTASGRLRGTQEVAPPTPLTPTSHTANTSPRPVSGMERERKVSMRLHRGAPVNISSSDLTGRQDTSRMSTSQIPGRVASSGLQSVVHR
T1 sequence (P48730 whole entry): as above

IC50 [1] [µM]	IC50 [2] [µM]	SMILES
0.454	0.02	CC(=O)Nc1cc(-c2c(-c3ccc(F)cn3)nn3c2CC[C@H]2C[C@H]23)ccn1 (stereo in doubt) [Example 342, N-(4-((5a*S,6a*R)-2-(5-Fluoropyridin-2-yl)-5,5a,6,6a-tetrahydro-4H-cyclopropa[e]pyrazolo[1,5-a]pyridin-3-yl)pyridin-2-yl)acetamide]
0.301	0.015	Fc1ccc(-c2nn3c(c2-c2ccnc4[nH]ncc24)CO[C@@H](C2CC2)C3)nc1 (single isomer, unassigned) [Example 109, (*S)-6-Cyclopropyl-2-(5-fluoropyridin-2-yl)-3-(1H-pyrazolo[3,4-b]pyridin-4-yl)-6,7-dihydro-4H-pyrazolo[5,1-c][1,4]oxazine]
0.671	0.029	Cc1cc(-c2c(-c3ccc(F)cn3)nn3c2CC(F)C3)c2cn[nH]c2n1 (stereo not shown) [Example 13, 4-(5-Fluoro-2-(5-fluoropyridin-2-yl)-5,6-dihydro-4H-pyrrolo[1,2-b]pyrazol-3-yl)-6-methyl-1H-pyrazolo[3,4-b]pyridine]
0.136	0.007	Fc1ccc(-c2nn3c(c2-c2ccnc4[nH]ncc24)CCC3)nc1 [Example 7, 4-[2-(5-Fluoro-2-pyridyl)-5,6-dihydro-4H-pyrrolo[1,2-b]pyrazol-3-yl]-1H-pyrazolo[3,4-b]pyridine]
0.048	0.005	Cc1nc2[nH]ncc2c(-c2c(-c3ccc(F)cn3)nn3c2OC[C@@H]2C[C@@H]2C3)c1F (stereo in doubt) [Example 483, (5a*S,6a*R)-3-(5-Fluoro-6-methyl-1H-pyrazolo[3,4-b]pyridin-4-yl)-2-(5-fluoropyridin-2-yl)-5a,6,6a,7-tetrahydro-5H-cyclopropa[e]pyrazolo[5,1-b][1,3]oxazepine]
0.109	0.065	Cc1n[nH]c2nc(C(F)F)cc(-c3c(-c4ccc(F)cc4)nn4c3COC(C(F)(F)F)C4)c12 (single isomer, unassigned) [Example 375, (*R)-3-[6-(Difluoromethyl)-3-methyl-1H-pyrazolo[3,4-b]pyridin-4-yl]-2-(4-fluorophenyl)-6-(trifluoromethyl)-6,7-dihydro-4H-pyrazolo[5,1-c][1,4]oxazine]
0.011	0.002	CC1(C)COc2c(-c3ccnc4cn[nH]c34)c(-c3ccc(F)cc3)nn2C1 [Example 453, 2-(4-Fluorophenyl)-6,6-dimethyl-3-(1H-pyrazolo[4,3-b]pyridin-7-yl)-5,7-dihydropyrazolo[5,1-b][1,3]oxazine]
0.248	0.012	Cc1cc(-c2c(-c3ccc(F)cn3)nn3c2CO[C@@H](C)C3)c2cn[nH]c2n1 (single isomer, unassigned) [Example 88, (*S)-2-(5-Fluoro-2-pyridyl)-6-methyl-3-(6-methyl-1H-pyrazolo[3,4-b]pyridin-4-yl)-6,7-dihydro-4H-pyrazolo[5,1-c][1,4]oxazine]
0.04	0.004	[2H]C([2H])([2H])[C@@]1(C(F)(F)F)Cn2nc(-c3ccc(F)cn3)c(-c3ccnc4[nH]ncc34)c2CO1 (single isomer, unassigned) [Example 424, (*S)-2-(5-Fluoropyridin-2-yl)-6-(methyl-d3)-3-(1H-pyrazolo[3,4-b]pyridin-4-yl)-6-(trifluoromethyl)-6,7-dihydro-4H-pyrazolo[5,1-c][1,4]oxazine]
0.198	0.007	CC1(C(F)(F)F)Cn2nc(-c3ccc(F)cn3)c(-c3ccnc4[nH]ncc34)c2CO1 (stereo not shown) [Example 176, 2-(5-Fluoropyridin-2-yl)-6-methyl-3-(1H-pyrazolo[3,4-b]pyridin-4-yl)-6-(trifluoromethyl)-6,7-dihydro-4H-pyrazolo[5,1-c][1,4]oxazine]
> 10	1.42	CC1(C)Cn2nc(-c3ccc(F)cn3)c(-c3ccnc4cc[nH]c34)c2CO1 [Example 149, 2-(5-Fluoro-2-pyridyl)-6,6-dimethyl-3-(1H-pyrrolo[3,2-b]pyridin-7-yl)-4,7-dihydropyrazolo[5,1-c][1,4]oxazine]
0.094	0.005	CC1(C)Cn2nc(-c3ccc(F)cn3)c(-c3c(F)cnc4[nH]ncc34)c2CO1 [Example 389, 3-(5-Fluoro-1H-pyrazolo[3,4-b]pyridin-4-yl)-2-(5-fluoropyridin-2-yl)-6,6-dimethyl-6,7-dihydro-4H-pyrazolo[5,1-c][1,4]oxazine]
0.032	0.002	CC1(C)Cc2c(-c3ccnc4[nH]ncc34)c(-c3ccc(F)cn3)nn2C1 [Example 234, 4-[2-(5-Fluoro-2-pyridyl)-5,5-dimethyl-4,6-dihydropyrrolo[1,2-b]pyrazol-3-yl]-1H-pyrazolo[3,4-b]pyridine]
0.087	0.004	Cc1cc(-c2c(-c3ccc(F)cn3)nn3c2CCC3)c2cn[nH]c2n1 [Example 8, 4-[2-(5-Fluoro-2-pyridyl)-5,6-dihydro-4H-pyrrolo[1,2-b]pyrazol-3-yl]-6-methyl-1H-pyrazolo[3,4-b]pyridine]
0.018	0.002	Cc1nc(-c2c(-c3ccc(F)cc3)nn3c2COC(C)(C)C3)c2cn[nH]c2n1 [Example 394, 2-(4-Fluorophenyl)-6,6-dimethyl-3-(6-methyl-1H-pyrazolo[3,4-d]pyrimidin-4-yl)-4,7-dihydropyrazolo[5,1-c][1,4]oxazine]
0.206	0.027	Cc1cc(-c2c(-c3ccc(Cl)cc3)nn3c2COCC3)c2cn[nH]c2n1 [Example 68, 2-(4-Chlorophenyl)-3-(6-methyl-1H-pyrazolo[3,4-b]pyridin-4-yl)-6,7-dihydro-4H-pyrazolo[5,1-c][1,4]oxazine]
0.029	0.002	Cc1nc2[nH]ncc2c(-c2c(-c3ccc(F)cn3)nn3c2C[C@@H]2C[C@@H]23)c1F [Example 273, (4aS,5aS)-3-(5-Fluoro-6-methyl-1H-pyrazolo[3,4-b]pyridin-4-yl)-2-(5-fluoropyridin-2-yl)-4,4a,5,5a-tetrahydrocyclopropa[4,5]pyrrolo[1,2-b]pyrazole]
0.056	0.005	Cc1nc2[nH]nc(C)c2c(-c2c(-c3ccc(F)cn3)nn3c2C[C@@H]2C[C@@H]23)c1F [Example 274, (4aS,5aS)-3-(5-Fluoro-3,6-dimethyl-1H-pyrazolo[3,4-b]pyridin-4-yl)-2-(5-fluoropyridin-2-yl)-4,4a,5,5a-tetrahydrocyclopropa[4,5]pyrrolo[1,2-b]pyrazole]
0.08	0.003	Fc1ccc(-c2nn3c(c2-c2ccnc4[nH]ncc24)[C@@H](Cl)C[C@]2(C3)CC2(F)F)nc1 (single isomer, unassigned) [Example 337, (1*S,4′*S)-4′-Chloro-2,2-difluoro-2′-(5-fluoropyridin-2-yl)-3′-(1H-pyrazolo[3,4-b]pyridin-4-yl)-4′,5′-dihydro-7′H-spiro[cyclopropane-1,6′-pyrazolo[1,5-a]pyridine]]
0.117	0.012	Fc1ccc(-c2nn3c(c2-c2ccnc4[nH]nc(Cl)c24)CC2(C3)CC2(F)F)nc1 (single isomer, unassigned) [Example 256, (*S)-3-(3-Chloro-1H-pyrazolo[3,4-b]pyridin-4-yl)-1′,1′-difluoro-2-(5-fluoro-2-pyridyl)spiro[4,6-dihydropyrrolo[1,2-b]pyrazole-5,2′-cyclopropane]]
2.73	0.032	CC[C@H]1Cn2nc(-c3ccc(F)cn3)c(-c3ccnc4[nH]ncc34)c2CO1 (single isomer, unassigned) [Example 96, (*S)-6-Ethyl-2-(5-fluoropyridin-2-yl)-3-(1H-pyrazolo[3,4-b]pyridin-4-yl)-6,7-dihydro-4H-pyrazolo[5,1-c][1,4]oxazine]
0.337	0.052	Cc1nc2[nH]nc(C)c2c(-c2c(-c3ccc(F)cn3)nn3c2CC2(C3)CC2(F)F)c1F (single isomer, unassigned) [Example 266, (*S)-1′1l′-Difluoro-3-(5-fluoro-3,6-dimethyl-1H-pyrazolo[3,4-b]pyridin-4-yl)-2-(5-fluoro-2-pyridyl)spiro[4,6-dihydropyrrolo[1,2-b]pyrazole-5,2′-cyclopropane]]
1.92	0.059	Cc1nc(-c2nn3c(c2-c2ccnc4[nH]ncc24)COC(C)(C)C3)ccc1Cl [Example 163, 2-(5-Chloro-6-methylpyridin-2-yl)-6,6-dimethyl-3-(1H-pyrazolo[3,4-b]pyridin-4-yl)-6,7-dihydro-4H-pyrazolo[5,1-c][1,4]oxazine]
0.005	0.001	Fc1ccc(-c2nn3c(c2-c2ccnc4[nH]ncc24)CC2(C3)CC2(F)F)cc1 (single isomer, unassigned) [Example 250, (*S)-1′,1′-Difluoro-2-(4-fluorophenyl)-3-(1H-pyrazolo[3,4-b]pyridin-4-yl)spiro[4,6-dihydropyrrolo[1,2-b]pyrazole-5,2′-cyclopropane]]
0.005	< 0.0005	Cc1cc(-c2c(-c3ccc(F)cc3)nn3c2OC[C@@H](C)C3)c2cn[nH]c2n1 (single isomer, unassigned) [Example 193, (*S)-2-(4-Fluorophenyl)-6-methyl-3-(6-methyl-1H-pyrazolo[3,4-b]pyridin-4-yl)-6,7-dihydro-5H-pyrazolo[5,1-b][1,3]oxazine]
0.016	0.003	CCC(=O)Nc1cc(-c2c(-c3ccc(F)cn3)nn3c2COC(C)(C)C3)ccn1 [Example 131, N-(4-(2-(5-Fluoropyridin-2-yl)-6,6-dimethyl-6,7-dihydro-4H-pyrazolo[5,1-c][1,4]oxazin-3-yl)pyridin-2-yl)propionamide]

From patent US20230339970A1, “CASEIN KINASE 1 DELTA MODULATORS” (priority 2020, published 2023)
